Test results taken from patent US20060241082A1, “Modulating vesicular monoamine transporter trafficking and function: a novel approach for the treatment of parkinson's disease” (priority 2002, published 2006).

How the values were obtained:
[1] = target: T1, plasmalemmal DA transporter (DAT) (Rattus norvegicus, UniProt P23977); settings: rats, cited from earlier work
T1 construct: Uptake of [^3H]DA was determined in striatal synaptosomes; from tissue; host or cells: striatum of male Sprague-Dawley rats (synaptosomes, P2)
T1 sequence (P23977 whole entry): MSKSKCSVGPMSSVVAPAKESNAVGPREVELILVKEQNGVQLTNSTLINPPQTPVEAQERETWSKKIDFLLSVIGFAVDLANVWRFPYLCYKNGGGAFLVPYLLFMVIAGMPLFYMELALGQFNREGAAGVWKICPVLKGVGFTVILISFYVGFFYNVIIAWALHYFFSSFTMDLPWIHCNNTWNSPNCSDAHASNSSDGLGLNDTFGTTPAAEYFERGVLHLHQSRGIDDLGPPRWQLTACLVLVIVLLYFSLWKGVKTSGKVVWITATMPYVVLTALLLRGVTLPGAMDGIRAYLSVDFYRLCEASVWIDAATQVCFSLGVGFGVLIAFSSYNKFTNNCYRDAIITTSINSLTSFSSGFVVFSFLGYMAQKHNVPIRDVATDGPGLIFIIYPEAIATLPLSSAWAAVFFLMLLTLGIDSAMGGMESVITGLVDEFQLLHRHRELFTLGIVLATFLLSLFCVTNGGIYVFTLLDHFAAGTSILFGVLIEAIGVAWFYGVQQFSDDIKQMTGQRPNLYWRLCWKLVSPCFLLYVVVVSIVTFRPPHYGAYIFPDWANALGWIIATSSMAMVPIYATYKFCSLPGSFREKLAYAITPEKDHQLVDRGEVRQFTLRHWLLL

[2] = Striatal tissue DA content of treated rats (HPLC); assay type: in vivo, rat; settings: rats
Protocol: On the day of the assay, frozen tissue samples were thawed, sonicated for 3-5 s in tissue buffer (0.05 M sodium phosphate/0.03 M citric acid buffer with 15% methanol (v/v); pH 2.78), and centrifuged for 15 min at 22,000×g. Tissue pellets were retained and protein determined according to the method of Lowry et al. (1951). The supernatant was centrifuged a second time for 15 min at 22,000×g. 20 μl of supernatant were injected onto a high performance liquid chromatograph system coupled to an electrochemical detector (+0.73 V) for separation and quantitation of dopamine levels using the method of Chapin et al. (1986).

VMAT-2 [3] = target: VMAT-2 (Mus musculus, UniProt Q8BRU6); assay: [3H]DHTBZ binding in striatal vesicles prepared from treated mice; settings: methamphetamine 4 x 10 mg/kg s.c., 2-h intervals, 1 and 24 h after treatment
Chain of VMAT-2 (Mus musculus, UniProt Q8BRU6) (Q8BRU6 whole entry): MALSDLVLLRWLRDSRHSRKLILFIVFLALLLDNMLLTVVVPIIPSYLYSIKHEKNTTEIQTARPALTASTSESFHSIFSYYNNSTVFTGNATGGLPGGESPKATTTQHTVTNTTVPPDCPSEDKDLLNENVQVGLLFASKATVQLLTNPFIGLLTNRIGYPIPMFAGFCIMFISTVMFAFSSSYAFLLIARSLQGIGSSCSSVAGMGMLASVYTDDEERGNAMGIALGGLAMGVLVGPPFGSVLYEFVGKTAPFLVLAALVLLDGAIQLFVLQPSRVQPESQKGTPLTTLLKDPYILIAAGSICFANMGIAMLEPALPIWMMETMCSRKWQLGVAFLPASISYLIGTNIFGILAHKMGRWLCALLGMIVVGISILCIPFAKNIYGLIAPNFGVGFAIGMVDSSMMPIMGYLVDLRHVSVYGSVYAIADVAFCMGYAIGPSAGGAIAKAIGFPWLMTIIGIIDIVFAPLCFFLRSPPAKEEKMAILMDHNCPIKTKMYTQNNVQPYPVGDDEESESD
Protocol: Binding of [^3H]DHTBZ was performed essentially as described by Brown et al. (2001a and 2001b) Briefly, 200 μl of the synaptic vesicles preparation (˜6 μg of protein) was incubated in wash buffer in the presence of [^3H]DHTBZ (2 nM final concentration) for 10 min at 25° C. The reaction was terminated by addition of 1 ml cold wash buffer and rapid filtration through Whatman GF/P filters soaked in 0.5% polyethylenimine. Filters were washed three times with ice-cold wash buffer. Nonspecific binding was determined by co incubation with 20 μM TBZ. All protein concentrations were determined by Bio-Rad protein assay (Bio-Rad Inc.)

VMAT-2 [4] = assay: VMAT-2 immunoreactivity in striatal subcellular fractions of treated mice (Western blot); assay type: in vivo, mouse; settings: methamphetamine 4 x 10 mg/kg s.c., 1 h
Protocol: Fresh striatal tissue was homogenized in ice-cold 0.32 M sucrose and centrifuged (800×g for 12 min: 4° C.).
VMAT-2 antibody was kindly donated by Dr. John Haycock at the Louisiana State University, New Orleans, La. (Antibody can be purchased from Chemicon, Temecula, Calif. and the reagent # is AB1767). Binding of VMAT-2 antibody was performed using 60 μl of whole synaptosomal, plasmalemmal membrane or vesicle subcellular fractions. Samples were added to 20 μl of loading buffer (final concentration: 2.25% SDS, 18% glycerol, 180 mM Tris Base (pH 6.8), 10% β-mercaptoethanol and bromophenol blue). Approximately 60 μg P2, 40 μg protein P3, and 20 μg protein S3 were loaded per well in a 10% SDS-polyacrylamide gel. Following electrophoresis, samples were transferred to polyvinylidene difluoride hybridization transfer membrane (New England Nuclear (NEN), Boston, Mass.). All subsequent incubation steps were performed at room temperature while shaking. Each membrane was first blocked for 2 h in 100 ml of Tris buffer saline with tween (TBST; 250 mM NaCl, 50 mM tris pH 7.4 and 0.05% tween 20) containing 5% nonfat dry milk. Each membrane was then incubated with anti-VMAT-2 antibody (1:4000 dilution) in 13 ml of TBST with 5% milk for 1 h and then washed 5 times (2×1 min wash: 3×5 min wash) in 70 ml TBST with 5% milk. The membranes then were incubated for 1 h with the goat F (ab′)2 anti-rabbit immunoglobulin antibody (Biosource International, Camarillo, Calif.) at a 1:2000 dilution in TBST with 5% milk. This secondary antibody had been affinity-isolated, preabsorbed with human immunoglobulin, and conjugated with horseradish peroxidase. The membranes were then washed 5 times (2×1 min wash: 3×5 min) with 70 ml TBST, and then developed with Renaissance Western Blot Chemiluminescence's Reagent Pus (NEN, Boston, Mass.), according to manufacturer specification. […] Bands on blots were quantified by densitometry measuring net intensity (the sum of the background-subtracted pixel values in the band area) using Kodak 1D image-analysis software.

VMAT-2 [5] = target: T2, VMAT-2 (Rattus norvegicus, UniProt Q01827); parameters: purified striatal vesicles prepared from treated rats; from tissue; host or cells: striatum of male Sprague-Dawley rats (synaptic vesicles; P2, P3, S3 fractions); settings: rats, multiple METH; Brown et al., 2000; cited from earlier work
T2 sequence (Q01827 whole entry): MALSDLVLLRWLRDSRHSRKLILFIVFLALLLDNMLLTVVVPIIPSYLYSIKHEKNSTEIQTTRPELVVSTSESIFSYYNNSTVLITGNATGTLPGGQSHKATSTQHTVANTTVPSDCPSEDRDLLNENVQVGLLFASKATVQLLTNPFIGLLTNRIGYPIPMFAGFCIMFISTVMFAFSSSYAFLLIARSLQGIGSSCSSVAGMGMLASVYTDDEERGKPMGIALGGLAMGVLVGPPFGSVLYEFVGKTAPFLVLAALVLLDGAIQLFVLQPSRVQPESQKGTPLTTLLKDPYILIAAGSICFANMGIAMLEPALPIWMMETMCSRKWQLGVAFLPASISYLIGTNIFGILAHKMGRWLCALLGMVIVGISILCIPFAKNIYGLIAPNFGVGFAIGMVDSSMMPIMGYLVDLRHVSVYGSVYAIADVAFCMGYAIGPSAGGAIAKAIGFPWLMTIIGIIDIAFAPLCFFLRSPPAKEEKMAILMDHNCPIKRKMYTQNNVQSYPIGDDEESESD

[6] = Locomotor activity and rearing of treated rats; assay type: in vivo, rat; settings: MPD 5-40 mg/kg s.c.
VMAT-2 [7] = target: T2, VMAT-2; assay: Direct in vitro application of MPD to vesicular [3H]DA uptake; assay type: biochemical; parameters: purified striatal vesicles prepared from treated rats; from tissue; host or cells: striatum of male Sprague-Dawley rats (synaptic vesicles; P2, P3, S3 fractions)

SMILES | magnitude of the decrease in plasmalemmal DA uptake ([1]; METH 4 x 10 mg/kg s.c., 2-h intervals, 1 h, Kokoshka 1998, Fleckenstein 1999, Metzger 2000) | recovery of plasmalemmal DA uptake after 24 h ([1]; multiple METH, Kokoshka et al., 1998) | striatal DA levels 7 d after treatment ([2]; METH 4 x 7.5 mg/kg s.c., 2-h intervals, vs saline/saline) | decrease in whole tissue DA content ([2]; multiple METH, 6 h after drug treatment) [%] | [3H]DHTBZ binding (VMAT-2 [3]) | VMAT-2 immunoreactivity in the membrane-associated fraction (VMAT-2 [4]) | VMAT-2 immunoreactivity in the vesicle preparation (VMAT-2 [4]) | total VMAT-2 immunoreactivity in synaptosomes (VMAT-2 [4]) | deficit in vesicular DA uptake (VMAT-2 [5]) | total tissue DA concentrations ([2]; 3 injections of MPD 5 mg/kg s.c., 1 h after the last MPD injection) | total DA levels 7 d after MPD per se ([2]; MPD 5 mg/kg s.c.) | effect of post-treatment with a single MPD injection on the 7-d striatal DA depletions caused by METH ([2]; MPD 5 mg/kg s.c. 1 h after the last METH (4 x 7.5 mg/kg s.c.)) | effect of two or three MPD injections on the persistent METH-induced striatal DA depletions ([2]; MPD 5 mg/kg s.c. at 1 and 3 h, or 1, 3 and 5 h after the last METH) | locomotor activity and rearing as compared with controls [6] | IC50 (VMAT-2 [7]; in vitro direct application, n=3) [µM] | vesicular [3H]DA uptake on direct application of MPD (VMAT-2 [7]; in vitro, concentrations of 1 nM to 1 μM)
CN[C@@H](C)Cc1ccccc1 (racemic) [METH, methamphetamine] | 70-80% | ≈ 60 % of control values | decreased | 60 | rapidly decreased | increasing | decreased | little effect | ≈ 65% | – | – | – | – | – | – | –
COC(=O)C(c1ccccc1)C1CCCCN1 (stereo not shown) [MPD, methylphenidate] | – | – | – | – | – | – | – | – | – | without altering | did not alter | partially reversed | completely prevented | increased | 19.8 ± 4 | without effect
